Reference: the RepoRT retention time repository (doi:10.1016/j.chroma.2012.03.059)

Assay: RP, Agilent ZORBAX Eclipse XDB-C8, 150 × 4.6 mm, 3.5 µm, 25 °C, 0.6 mL/min, estimated dead time 2.6 min; A: water + 0.1% formic acid; B: acetonitrile + 0.1% formic acid; gradient (min/%B) 0/10 5/10 30/100
Details: stereoisomer not certain
For `CC(C(=O)O)c1cccc(C(=O)c2ccccc2)c1` (stereo unspecified), the LC retention time was 19 min.
In the case of `CCC1OC(=O)C(C)C(OC2CC(C)(OC)C(O)C(C)O2)C(C)C(OC2OC(C)CC(N(C)C)C2O)C(C)(O)CC(C)C(=NOCOCCOC)C(C)C(O)C1(C)O` (stereo unspecified), the LC retention time is reported as 16.2 min.
In the case of `CC1(C)SC2C(NC(=O)COc3ccccc3)C(=O)N2C1C(=O)O` (stereo unspecified), the LC retention time is reported as 17.9 min.
`Nc1ccc(S(=O)(=O)Nc2nccs2)cc1` showed an LC retention time of 10.6 min.
With `CCC1(c2ccccc2)C(=O)NCNC1=O` the LC retention time was 12.7 min.
Compound `CCn1cc(C(=O)O)c(=O)c2cc3c(cc21)OCO3` has an LC retention time of 15.4 min.
Compound `NC(=O)N1c2ccccc2CCc2ccccc21` has an LC retention time of 17.1 min.
With `c1ccc2[nH]c(-c3cscn3)nc2c1` the LC retention time was 8.8 min.
`COc1ccc2c3c1OC1C(O)C=CC4C(C2)N(C)CCC341` (stereo unspecified) gave an LC retention time of 7 min.
`Nc1ccc(S(=O)(=O)Nc2ncccn2)cc1` showed an LC retention time of 9.9 min.
Compound `COc1ccc(C2Sc3ccccc3N(CCN(C)C)C(=O)C2OC(C)=O)cc1` (stereo unspecified) has an LC retention time of 15.2 min.
Work on `COc1ccc2c(c1)C13CCCCC1C(C2)N(C)CC3` (stereo unspecified) yielded an LC retention time of 14.6 min.
In the case of `NCC1(CC(=O)O)CCCCC1`, the LC retention time is reported as 6.5 min.
`CC12CCC(O)CC1CCC1C2CC(O)C2(C)C(C3=CC(=O)OC3)CCC12O` (stereo unspecified) gave an LC retention time of 13.4 min.
Work on `Cn1c(=O)[nH]c2ncn(C)c2c1=O` yielded an LC retention time of 6.3 min.
Compound `COc1cc(NS(=O)(=O)c2ccc(N)cc2)nc(OC)n1` has an LC retention time of 16.5 min.
Compound `CN=C(NC#N)NCCSCc1nc[nH]c1C` has an LC retention time of 4.3 min.
Work on `COCCc1ccc(OCC(O)CNC(C)C)cc1` (stereo unspecified) yielded an LC retention time of 12.1 min.
In the case of `Cc1ccnc(NS(=O)(=O)c2ccc(N)cc2)n1`, the LC retention time is reported as 11.5 min.
In the case of `CCC1OC(=O)C(C)C(OC2CC(C)(OC)C(O)C(C)O2)C(C)C(OC2OC(C)CC(N(C)C)C2O)C(C)(O)CC(C)C(=O)C(C)C(O)C1(C)O` (stereo unspecified), the LC retention time is reported as 14.6 min.
Work on `CCC1OC(=O)CC(O)C(C)C(OC2OC(C)C(OC3CC(C)(O)C(O)C(C)O3)C(N(C)C)C2O)C(CC=O)CC(C)C(=O)C=CC(C)=CC1COC1OC(C)C(O)C(OC)C1OC` (stereo unspecified) yielded an LC retention time of 15 min.
`CN(C)CC(c1ccc(O)cc1)C1(O)CCCCC1` (stereo unspecified) gave an LC retention time of 11.3 min.
For `CCCC(C)(COC(N)=O)COC(N)=O`, the LC retention time was 14.7 min.
In the case of `CCC(=O)C(CC(C)N(C)C)(c1ccccc1)c1ccccc1` (stereo unspecified), the LC retention time is reported as 16.6 min.
`CON=C(C(=O)NC1C(=O)N2C(C(=O)O)=C(COC(C)=O)CSC12)c1csc(N)n1` (stereo unspecified) showed an LC retention time of 12.9 min.
`CN(C)CCOC(c1ccccc1)c1ccccc1` showed an LC retention time of 15.1 min.
In the case of `NC(=O)N1c2ccccc2C(O)C(O)c2ccccc21` (stereo unspecified), the LC retention time is reported as 12.9 min.
`CC(C)NCC(O)COc1cccc2ccccc12` (stereo unspecified) showed an LC retention time of 14.4 min.
`CC(C)NCC(O)COc1ccc(CC(N)=O)cc1` (stereo unspecified) showed an LC retention time of 4.2 min.
`Cc1onc(-c2ccccc2)c1C(=O)NC1C(=O)N2C1SC(C)(C)C2C(=O)O` (stereo unspecified) showed an LC retention time of 19.2 min.
For `CC1=CC(O)CC(=O)Cc2nc(co2)C(=O)N2CCC=C2C(=O)OC(C(C)C)C(C)C=CC(=O)NCC=C1.CCC1NC(=O)C(NC(=O)c2ncccc2O)C(C)OC(=O)C(c2ccccc2)NC(=O)C2CC(=O)CCN2C(=O)C(Cc2ccccc2)N(C)C(=O)C2CCCN2C1=O` (stereo unspecified), the LC retention time was 18.4 min.
With `CC(C)(C)NCC(O)c1ccc(O)c(CO)c1` (stereo unspecified) the LC retention time was 4 min.
Work on `O=C(c1ccccc1)c1ccc2n1CCC2C(=O)O` (stereo unspecified) yielded an LC retention time of 19.7 min.
`Nc1ccc(S(N)(=O)=O)cc1` gave an LC retention time of 4.6 min.
With `COc1ccc2c3c1OC1C(=O)CCC4(O)C(C2)N(C)CCC314` (stereo unspecified) the LC retention time was 9.4 min.
Work on `NC(=O)N1c2ccccc2CC(O)c2ccccc21` (stereo unspecified) yielded an LC retention time of 13.9 min.
`COc1ccc(C(CN(C)C)C2(O)CCCCC2)cc1` (stereo unspecified) showed an LC retention time of 13.5 min.
Work on `O=C1NC(=O)C(c2ccccc2)(c2ccccc2)N1` yielded an LC retention time of 17.1 min.
With `Cc1cc(C)nc(NS(=O)(=O)c2ccc(N)cc2)n1` the LC retention time was 12.4 min.
`CC(C)NCC(O)COc1ccc(CC(=O)O)cc1` (stereo unspecified) gave an LC retention time of 9.4 min.
`Cc1ccc(C)c(OCCCC(C)(C)C(=O)O)c1` gave an LC retention time of 25 min.
For `Cc1cc(NS(=O)(=O)c2ccc(N)cc2)no1`, the LC retention time was 15.3 min.
Work on `COc1cc(Cc2cnc(N)nc2N)cc(OC)c1OC` yielded an LC retention time of 10.4 min.
With `COc1cccc(C2(O)CCCCC2CN(C)C)c1` (stereo unspecified) the LC retention time was 11.1 min.
Compound `CNC(=C[N+](=O)[O-])NCCSCc1ccc(CN(C)C)o1` has an LC retention time of 4.6 min.
In the case of `CC(=O)Nc1ccc(O)cc1`, the LC retention time is reported as 6.5 min.
With `NC(=O)N1c2ccccc2CC(=O)c2ccccc21` the LC retention time was 15.8 min.
With `NC(=O)N1c2ccccc2C=Cc2ccccc21` the LC retention time was 17.2 min.
Work on `CC(C)Cc1ccc(C(C)C(=O)O)cc1` (stereo unspecified) yielded an LC retention time of 23.6 min.
With `CC(=O)CC(c1ccccc1)c1c(O)c2ccccc2oc1=O` (stereo unspecified) the LC retention time was 21.4 min.
In the case of `CN1CCC23CCCCC2C1Cc1ccc(O)cc13` (stereo unspecified), the LC retention time is reported as 12.1 min.
For `Cc1cccc(Nc2ccccc2C(=O)O)c1C`, the LC retention time was 24.6 min.
Compound `COc1ccccc1OCC(O)CO` (stereo unspecified) has an LC retention time of 12.7 min.
`COC(=O)c1c(C)nc(C)c(C(=O)OC)c1-c1ccccc1[N+](=O)[O-]` showed an LC retention time of 20.5 min.
Work on `CCCC1CC(C(=O)NC(C(C)O)C2OC(SC)C(O)C(O)C2O)N(C)C1` (stereo unspecified) yielded an LC retention time of 8.7 min.
For `COc1ccc2c3c1OC1C(=O)CCC4C(C2)N(C)CCC314` (stereo unspecified), the LC retention time was 10.1 min.
Work on `Cc1nnc(NS(=O)(=O)c2ccc(N)cc2)s1` yielded an LC retention time of 12.7 min.
`CN1C(=O)CCC1c1cccnc1` (stereo unspecified) showed an LC retention time of 3.2 min.
`CCC1OC(=O)C(C)C(OC2CC(C)(OC)C(O)C(C)O2)C(C)C(OC2OC(C)CC(N(C)C)C2O)C(C)(OC)CC(C)C(=O)C(C)C(O)C1(C)O` (stereo unspecified) showed an LC retention time of 16 min.
`CC1(C)SC2C(NC(=O)C(N)c3ccccc3)C(=O)N2C1C(=O)O` (stereo unspecified) showed an LC retention time of 10.4 min.
With `COc1ccc2cc(C(C)C(=O)O)ccc2c1` (stereo unspecified) the LC retention time was 20.9 min.
Compound `CCC(C)(C)C(=O)OC1CC(C)C=C2C=CC(C)C(CCC3CC(O)CC(=O)O3)C21` (stereo unspecified) has an LC retention time of 26.9 min.
Compound `CCC1OC(=O)C(C)C(OC2CC(C)(OC)C(O)C(C)O2)C(C)C(OC2OC(C)CC(N(C)C)C2O)C(C)(O)CC(C)CN(C)C(C)C(O)C1(C)O` (stereo unspecified) has an LC retention time of 12.2 min.
Compound `Cn1c(=O)c2c(ncn2C)n(C)c1=O` has an LC retention time of 9.8 min.
`CC1(C)SC2C(NC(=O)Cc3ccccc3)C(=O)N2C1C(=O)O` (stereo unspecified) gave an LC retention time of 16.9 min.
Compound `CC1OC(OC2C(O)CC(OC3C(O)CC(OC4CCC5(C)C(CCC6C5CC(O)C5(C)C(C7=CC(=O)OC7)CCC65O)C4)OC3C)OC2C)CC(O)C1O` (stereo unspecified) has an LC retention time of 15.2 min.
